From patent publication US12390483B2, “Compounds and methods for treating neurological and cardiovascular conditions” (Astrocyte Pharmaceuticals, Inc., priority 2016, dated 2025)
“Also recorded” adds a separate entry of the source.

How the values were obtained:
[1] = Pharmacokinetics of MRS4322 following intraperitoneal administration of MRS2365 to mice; assay type: in vivo; conditions: for Plasma Concentration by Subject / Plasma Concentration Mean / Brain Concentration by Subject / Brain Concentration Mean: MRS4322 in mice after MRS2365 0.24 mg/kg i.p.; for Plasma Concentration by Subject / Brain Concentration by Subject: subjects A-C; for Plasma Concentration by Subject / Plasma Concentration Mean: BLQ = below 2.26 ng/mL; for Brain Concentration by Subject / Brain Concentration Mean: BLQ = below 9.40 ng/g
Protocol: Animals: Female C576BL/6J mice weighing approximately 0.02 Kg were used for this study, supplied by the University of Texas Health Sciences Center (San Antonio, TX). All studies were conducted under approved University of Texas Health Sciences Center IACUC protocols.
Drug Administration: MRS2365 was solubilized in phosphate-buffered saline and then diluted in phosphate-buffered saline to prepare dosing solution. Final dosing solution concentration of MRS2365 was 100 μM. A 100 μL volume of dosing solution was administered intraperitoneally to each mouse per 20 gram body weight; MRS2365 was administered intraperitoneally at 0.5 μmol/kg or 0.24 mg/kg. Three mice were administered MRS2365 for each sampling timepoint.
Tissue Sampling: Blood and brain samples were obtained at 0, 0.083, 0.25, 0.5, 1, 2 and 8 hours post-dose. At each timepoint, mice (3/timepoint) were euthanized in a […] chamber. Whole blood was obtained by cardiac puncture into Microtainer tubes containing heparin and immediately centrifuged for preparation of plasma; plasma was stored at −80° C. At each timepoint, whole brain samples were obtained by decapitation, rinsed in ice-cold phosphate-buffered saline and weighed. Brain samples were then immediately flash-frozen in liquid nitrogen and stored at −80° C.
The following table outlines the LC and MS/MS conditions employed:
The calibration range for the MRS4322 plasma concentration standard curve was 2.26-241 ng/mL. The calibration range for MRS4322 brain concentrations was 2.35-242 ng/mL.
For bioanalysis of brain concentrations of MRS4322, brain samples were homogenized in ice-cold phosphate-buffered saline in a 4× dilution. Aliquots of the resulting diluted brain homogenate were treated with acetonitrile and analyzed by LC-MS/MS. Because of the 4× homogenate dilution, the calibration range of the MRS4322 brain standard curve was translated to 9.40-968 ng/gm. In several samples, MRS4322 were detectable but fell below the brain LLOQ of 9.40 ng/gm but were above background; in these cases the final reported brain concentration was extrapolated based on MS peak heights.

GFAP expression = assay: Traumatic brain injury (TBI) in mice, Western blot analysis for GFAP; assay type: in vivo; conditions: for GFAP expression in brain (Western blot, GFAP/actin): 7 days post-injury, versus untreated TBI
Protocol: Animals and traumatic brain injury (TBI): TBI was performed with a controlled closed skull injury model as described in […] al. 2012 (J. Neurotrauma 30, 55-66). Following the method described therein, a pneumatic impact device was used to generate a moderate TBI leaving the skull and dura matter intact. To achieve this, C57BL/6 mice were anesthetized with isoflurane (3% induction, 1% maintenance) in 100% oxygen. A body temperature of 37° C. was maintained using a temperature-controlled heated surgical table. A small midline incision was made on the scalp using aseptic surgical techniques. A 5 mm stainless steel disc was positioned on the skull and fixed using superglue on the right parietal bone between bregma and lamda over the somatosensory cortex. The mouse was then positioned on a stage directly under the pneumatic impact tip. […] Scalp incisions were closed using 4-0 nylon braided suture and antibiotic ointment applied to the incision. Mice were placed in a Thermo-Intensive Care Unit (Braintree Scientific model FV-1; 37° C.; 27% 02) and monitored until fully awake and moving freely. […] Western Blot Analysis for GFAP: At selected survival times, mice were anesthetized under isoflurane and sacrificed. The brain was removed and placed on ice for dissection into impacted and non-impacted brain hemispheres. […] The homogenate was transferred to a 2 mL tube and centrifuged at 1000 g for 10 minutes at 4° C. and the supernatant was collected and analyzed. Protein concentration was determined by the BCA assay using a 1:50 dilution. 100 μg of protein was removed as an aliquot for each sample and Laemmli buffer containing β-mercaptoethanol added and the sample placed in a heat block for 3 minutes at 95° C. Samples were loaded on a 12% gel and ran at 80 V for 20 minutes followed by 40 minutes at 130 V. Samples were transferred to nitrocellulose membrane at 100 V for 1 hour. The membrane was blocked with 5% milk in TBS-T for 30 minutes. GFAP (1:1000-Imgenex IMG-5083-A) was added and placed at 4° C. overnight. The membrane was washed with TBS-T three times for 10 minutes. Secondary antibody for GFAP (Donkey anti-rabbit HRP conjugated (ImmunoJackson Laboratories; 711-035-152; 1:20000) was applied at room temperature for 1 hour. The membranes were washed with TBS-T for 15 minutes (3 times) and developed using the Western Lightning Plus-ECL kit (PerkinElmer, Inc.) following manufacturer's directions.

[2] = TBI mice, approx. 0.5 μmol/kg 30 min post-TBI

| Plasma Concentration by Subject ([1]; 0 h) | Plasma Concentration Mean ([1]; 0 h) | Brain Concentration by Subject ([1]; 0.083 h) | Brain Concentration Mean ([1]; 0.083 h) | Brain Concentration by Subject ([1]; 1 h) | Brain Concentration Mean ([1]; 1 h) | Brain Concentration by Subject ([1]; 2 h) | Brain Concentration Mean ([1]; 2 h) | Plasma Concentration by Subject ([1]; 8 h) | Brain Concentration by Subject ([1]; 8 h) | Plasma Concentration Mean ([1]; 8 h) | Brain Concentration Mean ([1]; 8 h) | SMILES | metabolic fate following intraperitoneal administration to mice ([1]; MRS2365 0.5 μmol/kg i.p., mice) | GFAP expression in brain (Western blot, GFAP/actin) (GFAP expression; [2]) | GFAP levels in plasma (Western blot, relative to actin) (GFAP expression; TBI mice, approx. 0.5 μmol/kg 30 min post-TBI, day 7, versus untreated TBI) | efficacy in the mouse TBI model (GFAP expression; summary statement) |
| --- | --- | --- | --- | --- | --- | --- | --- | --- | --- | --- | --- | --- | --- | --- | --- | --- |
|  |  |  |  |  |  |  |  |  |  |  |  | CSc1nc(N)c2ncn([C@H]3[C@H](O)[C@H](O)[C@]4(COP(=O)(O)OP(=O)(O)O)C[C@H]34)c2n1 [MRS2365] | rapidly and completely metabolized to MRS4322 | significantly lower; also recorded: decreased |  |  |
| BLQ | BLQ | BLQ | BLQ | BLQ | BLQ | BLQ | BLQ | BLQ | BLQ | BLQ | BLQ | CSc1nc(N)c2ncn([C@H]3[C@H](O)[C@H](O)[C@]4(CO)C[C@H]34)c2n1 [MRS4322] |  | significantly lower; also recorded: decreased | significantly reduced | significant efficacy |
